These results are taken from US20230141284A1, “CANCER THERAPEUTIC METHOD” (ONO PHARMACEUTICAL CO., LTD., priority 2020, published 2023).

One data set deals with IRF pathway. The experiment in a line: Verification of STING agonistic activity (IRF pathway in cells of PCT/EP2017/59781). The conditions noted are these: cells described in PCT/EP2017/59781, about 24 hours incubation. The class given is cell-based. As for the experimental part: The cells described at lines 37-39 on page 18 in the publication of PCT application with application number PCT/EP2017/59781 were suspended in RPMI medium to prepare 2×10^6 cells/mL cell suspension. 50 μL of cell suspensions were dispensed into a 96-well plate, to which 50 μL of 6 to 20,000 nM compound solutions were further added, followed by incubation at 37° C. for about 24 hours. 10 μL of the cell suspensions were collected from each well, which were mixed with 50 μL of Quanti-luc (Invivogen), and then the activity of the IRF pathway was measured by detecting luminescence using a microplate reader.

A further data set has as its target T1, IDO1 (Homo sapiens, UniProt P14902).
T1 construct: His-tag; purchased BPS Bioscience
The experiment in a line: IDO1 inhibitory activity (IDO1 Fluorogenic Inhibitor Screening Assay Kit). It is filed as biochemical. The conditions noted are these: compound solutions of 0.6 to 200 μmol/L added. As for the experimental part:
The evaluation of IDO1 inhibitory activity was carried out using the IDO1 Fluorogenic Inhibitor Screening Assay Kit (BPS Bioscience). Specifically, IDO1 Fluorogenic Reaction Solution was dissolved, of which 180 μL were added to each well. Then, 10 μL of the compounds at the respective concentrations of 0.6, 2, 6, 20, 60 and 200 μmol/L were added thereto. Further, after adding 10 μL of IDO1 His-Tag solution thereto, and the mixture thereof was incubated at room temperature for 1 hour, and then 20 μL of Fluorescence Solution was added thereto, and the mixture thereof was incubated at 37° C. for 4 hours. After standing them at room temperature for 10 minutes, the fluorescence was measured using a microplate reader (excitation: 400 nm, emission: 510 nm).

The subject of data set [1] is BTK, KDR, each subtype of PKCa to t, each CDK of CDK2 to 9, FAK, TIE2, RAF1 and BRAF. The experiment in a line: Inhibitory activity against various kinases (mobility shift, LabChip). The class given is biochemical. The conditions noted are these: 4 μmol/L test substance solution (4 times the final concentration). As for the experimental part: 4 μmol/L of the test substance solution (the compound pertaining to the present invention produced in Example 1) (at 4 times the final concentration) was prepared by dissolving it to the assay buffer (20 mmol/L HEPES, 0.01% Triton X-100, 1 mmol/L DTT, pH 7.5). 4 μmol/L of the substrate/ATP/metal solution (at 4 times the final concentration) was prepared by dissolving it to the kit buffer (20 mmol/L HEPES, 0.01% Triton X-100, 5 mmol/L DTT, pH 7.5). Various kinase solutions at twice the final concentration were prepared by dissolving them to the assay buffer. 5 μL of the test substance solution, 5 μL of the substrate/ATP/metal solution and 10 μL of the kinase solution were mixed in wells of a polypropylene 384-well plate, and the mixture thereof was reacted at room temperature for 1 to 5 hours. The reaction was stopped by adding 70 μL of the termination buffer (QuickScout Screening Assist MSA; Carna Biosciences). The substrate peptide and phosphorylated peptide in the reaction solution were separated and quantified by LabChip system (Perkin Elmer). The kinase reaction was evaluated based on the product ratio (P/(P+S)) calculated from the peak height (S) of the substrate peptide and the peak height (P) of the phosphorylated peptide. The various kinases used in this evaluation are as follows: BTK, KDR, each subtype of PKCa to t, each CDK of CDK2 to 9, FAK, TIE2, RAF1 and BRAF.

Data set [2] relates to colon cancer cell line MC38. The experiment in a line: Anti-tumor effect in subcutaneously colon cancer cell line MC38 tumor-bearing mouse model (Example 17). It is filed as in vivo, mice (C57/BL6). The conditions noted are these: 3 mg/kg, administered 7 days after transplantation, measured until Day 26. As for the experimental part:
Seven days after transplantation, the subcutaneously MC38 tumor-bearing mice were grouped based on tumor volume, and the Vehicle group (n=8) and group to which the compound shown in Example 1 (3 mg/kg, n=6) was administered were set. The changes in tumor volume were continuously measured until 26 days after transplantation (Day 26). The tumor volume was calculated by the following formula:
[Tumor volume (mm^3)]=[major axis (mm)]×[minor axis (mm)]^2×0.5

The nature of data set [3]: Conversion of a prodrug to its active body (Compound B) in mouse plasma. The class given is in vitro ADME. The conditions noted are these: 1 μmol/L, 37° C., 60 minutes. As for the experimental part: (§1) The solutions of the example compounds in Table 2 below (50 μmol/L, 50% acetonitrile with 5% DMSO) were added to plasma (245 μL), respectively, such that the final concentrations thereof become 1 μmol/L. After keeping them the temperature at 37° C. for 60 minutes, 40 μL of the reaction solutions were taken therefrom, and added to 200 μL of acetonitrile/ethanol (7:3) containing Candesartan (internal standard).
(§2) The concentration of the compound prepared in Example 3 (Compound B) in the plasma resulting from the above reaction was analyzed by LC-MS/MS according to the following method.
(§3) The whole amount was transferred to a filter plate for protein removal and filtered by suction, and the filtrate thereof was diluted 2-fold with water. [LC column] Shim-pack XR-ODSII 2.0 mm ID×75 mm (Shimadzu Corporation) [LC condition] Column temperature: 40° C. Mobile phase: A: 0.2% formic acid in 5 mM ammonium acetate solution; and
(§4) [MS conditions] Electrospray, positive mode, multiple reaction monitoring; MS monitor ion: Compound B: m/z353.0→m/z311.2, DP: 80, CE: 35; and Candesartan (internal standard): m/z309.1→m/z163.0, DP: 71, CE: 21.
(§5) A regression formula was calculated from the peak area ratio (peak area of Compound B/peak area of Candesartan) of the real sample and the standard sample for the calibration curve in the same matrix, and the peak area ratio of the real sample was substituted into the regression formula to calculate the quantitative value. 60 minutes later, the concentration of Compound B in the sample was compared, and the conversion rate (%) thereof was calculated using the following formula:
(§6) Conversion rate (%)=Concentration of Compound B in the sample after 60 minutes (μmol/L)×100

Data set [4] can be described thus: Conversion of a prodrug to its active body (Compound B) in human plasma. The conditions noted are these: 1 μmol/L, 37° C., 60 minutes. The class given is in vitro ADME. As for the experimental part:
as §1, §2, §3, §4, §5, §6

Data set [5] relates to colon cancer cell line MC38. In words: Compound A and anti-PD-1 antibody 4H2 in MC38 tumor-bearing mouse model (Example 21). The class given is in vivo, mice (C57/BL6). As for the experimental part:
Compound A was administered intravenously once 8 days after transplantation, and the anti-PD-1 antibody 4H2 was administered intraperitoneally 4 times every 6 days since 8 days after transplantation. • Vehicle (n=9), • Compound A (0.1 mg/kg; n=9), • Anti-PD-1 antibody 4H2 (10 mg/kg (but 20 mg/kg only in the first dosage); n=9), and • Compound A (0.1 mg/kg) and anti-PD-1 antibody 4H2 (10 mg/kg (but 20 mg/kg only in the first dosage); n=9).
FIGS. 6 and 7 show results thereof.

The test system of data set [6] is melanoma cell line B16F10. In words: Combination experiments in subcutaneously melanoma cell line B16F10 tumor-bearing mice model (Example 23). It is filed as in vivo, mice (C57/BL6). The conditions noted are these: until Day 30. As for the experimental part:
• Vehicle and control antibody (rIgG1) (n=8 or 6), • Compound A (0.3 mg/kg) and control antibody (rIgG1) (n=6), • Anti-PD-1 antibody 4H2 (10 mg/kg (but 20 mg/kg only in the first dose only); n=6), and • Compound A (0.3 mg/kg) and anti-PD-1 antibody 4H2 (10 mg/kg (but 20 mg/kg only for the first dosage)) (n=6).
In the Combination Experiment 1, Compound A was administered once 10 days after transplantation while the anti-PD-1 antibody 4H2 and control antibody were administered 4 times every 6 days since 10 days after transplantation, respectively.
• Vehicle and control antibody (rIgG1) (n=8 or 6), • Compound A (0.3 mg/kg) and control antibody (rIgG1) (n=6), • Anti-VEGFR2 antibody DC101 (BioXCell) (10 mg/kg; n=6), and • Compound A (0.3 mg/kg) and anti-VEGFR2 antibody DC101 (10 mg/kg) (n=6).
In the Combination Experiment 2, Compound A was administered 4 times every 7 days since 10 days after transplantation while anti-VEGFR2 antibody DC101 and control antibody were administered 7 times every 3 or 4 days once 10 days after transplantation, respectively.
Vehicle and Compound A were administered intravenously while control antibody, anti-PD-1 antibody, and anti-VEGFR2 antibody were administered intraperitoneally, respectively.
FIGS. 9 and 10 show results thereof.

The subject of data set [7] is human acute myeloid leukemia cell line MV4-11. The experiment in a line: Anti-tumor effect in subcutaneously tumor model bearing human acute myeloid leukemia cell line MV4-11. The conditions noted are these: dosages of 1.0 mg/kg and 3.0 mg/kg; immunodeficient mice; until Day 28. The class given is in vivo. As for the experimental part:
They were grouped based on tumor volume 6 days after transplantation, and Compound A (0.3, 1.0, and 3.0 mg/kg, respectively; n=8) and Vehicle (n=8) were administered to the subcutaneously tumor-bearing mice, respectively.

T1 sequence (P14902 whole entry): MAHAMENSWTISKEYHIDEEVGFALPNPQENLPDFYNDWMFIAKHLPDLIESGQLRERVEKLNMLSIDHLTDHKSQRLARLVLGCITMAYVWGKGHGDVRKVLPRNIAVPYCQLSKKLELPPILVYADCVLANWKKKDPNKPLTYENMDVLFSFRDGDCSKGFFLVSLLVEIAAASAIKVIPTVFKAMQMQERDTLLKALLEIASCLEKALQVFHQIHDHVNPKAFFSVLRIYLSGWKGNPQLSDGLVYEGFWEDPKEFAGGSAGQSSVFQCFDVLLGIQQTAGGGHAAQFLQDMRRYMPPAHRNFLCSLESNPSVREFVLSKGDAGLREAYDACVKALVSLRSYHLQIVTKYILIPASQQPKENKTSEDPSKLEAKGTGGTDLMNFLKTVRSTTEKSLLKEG

As for `COC(=O)c1cc(-c2ncc(-c3cn[nH]c3)c3onc(N)c23)c(F)cc1N` [Example 1, methyl 2-amino-5-(3-amino-7-(1H-pyrazol-4-yl)isoxazolo[4,5-c]pyridin-4-yl)-4-fluorobenzoate], the IRF activating effect result with IRF pathway is given as “no IRF activating effect”. Moreover, on IDO1, the IDO1 inhibitory activity result is reported as “no IDO1 inhibitory activity”. In addition, the “inhibitory activity against various kinases” value in data set [1] is reported as “no significantly inhibit activities”. In [2], the “tumor growth (tumor volume)” value is listed as “almost completely suppressed the tumor growth”.

Turning to `CC(=O)c1cc(-c2ncc(-c3cnn(COP(=O)(O)O)c3)c3onc(N)c23)c(F)cc1N` [Example 10(1), (4-(4-(5-acetyl-4-amino-2-fluorophenyl)-3-aminoisoxazolo[4,5-c]pyridin-7-yl)-1H-pyrazol-1-yl)methyl dihydrogen phosphate], the “Plasma conversion rate Mouse” value in data set [3] is on record as “+ + +”. In data set [4], the “Plasma conversion rate Human” value is “+ + +”. Also, the tumor-reducing effect result in data set [5] (Compound A 0.1 mg/kg combined with anti-PD-1 antibody 4H2, 28 days after transplantation) is “showed the tumor-reducing effect”. Besides, in data set [5] (Compound A 0.1 mg/kg i.v. once combined with anti-PD-1 antibody 4H2 10 mg/kg (20 mg/kg first dosage)), the “anti-tumor effect observed with anti-PD-1 antibody alone” value is reported as “enhanced”. Further, the “number with complete tumor remission” value in [5] (combination of Compound A (0.1 mg/kg) and the anti-PD-1 antibody) is listed as 5 out of 9. The “anti-tumor effect of anti-VEGFR2 antibody” value in data set [6] (Compound A 0.3 mg/kg 4 times every 7 days combined with anti-VEGFR2 antibody DC101 10 mg/kg) is “enhanced”. Moreover, in [6] (Compound A 0.3 mg/kg once combined with anti-PD-1 antibody 4H2 10 mg/kg (20 mg/kg first dosage)), the “anti-tumor effect of anti-PD-1 antibody” value is listed as “enhanced”. Also, the “tumor growth (tumor volume)” value in [7] was “suppressed tumor growth”.
